Experimental data reported in patent publication US10004785B2, “LKKTET and/or LKKTNT peptide compositions which are lyophilized or in a form capable of being lyophilized” (RegeneRX Biopharmaceuticals, Inc., priority 2005, dated 2018).

Assays:
[1] = system: Human corneal epithelial cells; assay: colorimetric BrdU incorporation assay (cell proliferation); format: cell-based; settings: 1 mcg/ml Tβ4, 3 and 24 hour time points
Description: (§1) Human corneal epithelial cells at approximately 80% confluence were treated with 0%, 0.001%, 0.01%, or 0.1% BAK for 15 minutes. After 3 and 24 hours of recovery in culture medium, cell proliferation was measured using a colorimetric BrdU incorporation assay. Apoptosis was measured using a colorimetric annexin-based cell death assay. […] To further assess the ability of Tb4 to prevent apoptosis, corneal epithelial cells were treated with 0.01% BAK±Tβ4 over a 5 day time course.

[2] = system: Human corneal epithelial cells; assay: colorimetric annexin-based cell death assay (apoptosis); settings: 1 mcg/ml Tβ4, 3 and 24 hour time points
Description: as §1

For “Thymosin beta 4 (SDKPDMAEIEKFDKSKLKKTETQEKNPLPSKETIEQEKQAGES; Thymosin beta-4; UniProt P62328 2-44, looked up) [Tβ4, a 43 amino acid, 4.9 kDa ubiquitous polypeptide originally isolated from the thymus]”, the “cell proliferation of BAK-treated corneal epithelial cells” value [1] was “not promoted” and the “apoptosis of BAK-treated corneal epithelial cells” value [2] was “not inhibited”.
